We go through 1 substance from US7910723B2, “IG20 splice variants therapeutics for cancer” (The Board of Trustees of the University of Illinois, priority 2006, dated 2011).

Type in all cases: cell-based
Data set [1] relates to HeLa cells. Nature of the data set: Crystal violet staining, colony formation, HeLa. To be noted: after 12 days. How it is done: In order to assess the effects on cell growth and proliferation, various shRNA-expressing viable cells were counted. […] The cells were stained with CFSE and cell division was monitored. […] Further confirmation was obtained by plating equal numbers of HeLa cells expressing various shRNAs and determining the number and size of colonies after 12 days.
Crystal Violet Staining. 5×10^5 HeLa and 8×10^5 PA-1 cells were plated into six-well plates. 24 hours later cells were treated with different shRNA-expressing lentiviruses for 4 hours. Cells were washed and replenished with fresh warm medium. Twelve days later, cells were fixed in ice-cold methanol and stained with crystal violet to assess viability and colony formation.

Data set [2] concerns ERK1/2. Nature of the data set: TNF-α induced ERK phosphorylation in PA-1 cells (immunoblot). To be noted: PA-1, TNF-α 50 ng/mL 15 min, 48 h transduction, compared to SCR. On the procedure:
(A) HeLa cells (3×10^6 per 100 mm dish) were transduced with different lentiviruses expressing SCR, Mid and 16E ShRNA for 48 h. The cells were then serum starved for 6 h and were either left untreated or treated with TNF-α (50 ng/mL) for 15 min. Cell lysates were analyzed for phosphorylated ERK or total ERK by immunoblot. (B) PA-1 cells (5×10^6 per 100 mm dish) were transduced with different lentiviruses expressing SCR, Mid and 13L ShRNA for 48 h. The cells were then serum starved for 6 h and were either left unstimulated or stimulated with TNF-α (50 ng/mL) for 15 min. Cell lysates were analyzed for phosphorylated ERK or total ERK by immunoblot. (C) HeLa cells (3×10^5 per 60 mm dish) were either left untransfected or transfected with either SirMADD or EYFPC1 plasmids. Twenty-four hours post-transfection, the cells were infected with Mid ShRNA. Forty-eight hours post transduction, the cells were either left unstimulated or stimulated with TNF-α (50 ng/mL) for 15 min. Cell lysates were analyzed for phosphorylated ERK or total ERK by immunoblot. […]
Whether MADD isoform alone is playing a critical role in TNF-α induced ERK activation was determined. […] To delineate the role of MADD from DENN-SV, the effect of IG20 down-modulation upon TNF-α induced ERK phosphorylation was analyzed in PA-1 ovarian carcinoma cell line which expresses only two IG20 isoforms namely, MADD and DENN-SV. […]
On the technique in general: In western blotting, separated proteins are transferred to a membrane and probed.

Data set [3] concerns HeLa cells. Nature of the data set: Spontaneous apoptosis of HeLa cells (Hoechst nuclear condensation, TMRM mitochondrial depolarization). To be noted: 72 hours post-transduction. How it is done: FIG. 1 illustrates effect of down-modulation of IG20-SVs in HeLa cells. (A) Summary of results showing percentage of cells with increased nuclear condensation as measured by Hoechst staining from three independent experiments. The P value was <0.005 for all test groups. Hoechst Staining-72 hours post-transduction was performed and HeLa cells were collected and stained with 1 μg/mL of Hoechst and subjected to FACS analysis. Percentages of highly positive cells (apoptotic cells) are indicated on the histograms. (B) Summary of results showing percentage of cells with increased mitochondrial depolarization from three independent experiments. The P value was <0.005 for all test groups. The data were collected from only GFP positive cells. […] Loss of staining as a marker of mitochondrial depolarization was detected by FACS.
Spontaneous cell death was determined by nuclear condensation (Hoechst 33342) and loss of mitochondrial membrane potential (TMRM staining) (FIG. 1A-B). […] Whether the underlying cause of increased spontaneous apoptosis was similar to that noted after induction of apoptosis by the extrinsic (caspase-8 activation) or the intrinsic (caspase-9 activation) pathway was analyzed by determining the percentage of cells that harbored active caspases 8 and 9 using flow cytometry.
Hoechst Staining. […] Cells with condensed chromatin were analyzed using a BD-LSR (Becton Dickinson, N.J.). […]

With “13L-shRNA: shRNA targeting exon 13L (IG20, MADD), 5′ CGGCGAATCTATGACAATC-3′ (SEQ ID NO: 4)”, in data set [1], the Number of colonies result is given as “significantly fewer colonies” and the Size of colonies entry is given as “comparable to that of controls”. For the same substance, the “TNF-α induced ERK activation” value in data set [2] was “significant abrogation of ERK activation”. For the same substance, the “Spontaneous apoptosis (nuclear condensation, mitochondrial depolarization)” value in data set [3] is reported as “consistently higher in 13L-treated, relative to Mid-treated, cells”.
